In patent US10844077B2, “Thiazolyl-containing compounds for treating proliferative diseases” (Dana-Farber Cancer Institute, Inc., priority 2014, dated 2020):
Values joined by “and” are separate entries in the source; they are usually repeats but may differ in a detail not shown here. Identical values can stand only once.

Assays:
Assay in all cases: KINATIV assay
Assay type in all cases: cell-based
Settings in all cases: 1 μM, 90 minutes, BCWM.1 cells
Erk1 = Erk1 (Homo sapiens (Human), UniProt P27361)
Method in brief: (§1)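 Harvest, lyse, probe: lysates take up an ATP-biotin probe directly, and ACTIVX identifies and quantifies the kinases bound.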

PAN3 = PAN3 (Homo sapiens (Human), UniProt Q58A45)
Method in brief: as §1

MSK2 domain1 = MSK2 domain1 (Homo sapiens (Human), UniProt O75676)
Method in brief: as §1

PKD1, PKD2 = tested on: PKD1, PKD2
Method in brief: as §1

PKN1 = PKN1 (Homo sapiens (Human), UniProt Q16512)
Method in brief: as §1

MSK1, MSK2 domain1 = tested on: MSK1, MSK2 domain1
Method in brief: as §1

[1] = tested on: ZC1/HGK, ZC2/TNIK, ZC3/MINK
Method in brief: as §1

MAP3K5 = MAP3K5 (Homo sapiens (Human), UniProt Q99683)
Method in brief: as §1

NEK2 = NEK2 (Homo sapiens (Human), UniProt P51955)
Method in brief: as §1

SRC = SRC (Homo sapiens (Human), UniProt P12931)
Method in brief: as §1

ACK = ACK (Homo sapiens (Human), UniProt Q07912)
Method in brief: as §1

ILK = ILK (Homo sapiens (Human), UniProt Q13418)
Method in brief: as §1

MST4 = MST4 (Homo sapiens (Human), UniProt Q9P289)
Method in brief: as §1

RSKL1 = RSKL1 (Homo sapiens (Human), UniProt Q96S38)
Method in brief: as §1

JNK1, JNK2, JNK3 = tested on: JNK1, JNK2, JNK3
Method in brief: as §1

Wnk1, Wnk2, Wnk3 = tested on: Wnk1, Wnk2, Wnk3
Method in brief: as §1

[2] = tested on: CaMK2a, CaMK2b, CaMK2d, CaMK2g
Method in brief: as §1

IKKe, TBK1 = tested on: IKKe, TBK1
Method in brief: as §1

JAK1 = JAK1 (Homo sapiens (Human), UniProt P23458)
Method in brief: as §1

OSR1 = OSR1 (Homo sapiens (Human), UniProt O95747)
Method in brief: as §1

PIK3C2B = PIK3C2B (Homo sapiens (Human), UniProt O00750)
Method in brief: as §1

CDK4 = CDK4 (Homo sapiens (Human), UniProt P11802)
Method in brief: as §1

ROCK1 = ROCK1 (Homo sapiens (Human), UniProt Q13464)
Method in brief: as §1

MST1 = MST1 (Homo sapiens (Human), UniProt Q13043)
Method in brief: as §1

CDK11, CDK8 = tested on: CDK11, CDK8
Method in brief: as §1

MASTL = MASTL (Homo sapiens (Human), UniProt Q96GX5)
Method in brief: as §1

AKT1 = AKT1 (Homo sapiens (Human), UniProt P31749)
Method in brief: as §1

CaMK4 = CaMK4 (Homo sapiens (Human), UniProt Q16566)
Method in brief: as §1

PI4KA, PI4KAP2 = tested on: PI4KA, PI4KAP2
Method in brief: as §1

MAP3K1 = MAP3K1 (Homo sapiens (Human), UniProt Q13233)
Method in brief: as §1

ITPK1 = ITPK1 (Homo sapiens (Human), UniProt Q13572)
Method in brief: as §1

TAO1, TAO3 = tested on: TAO1, TAO3
Method in brief: as §1

SNRK = SNRK (Homo sapiens (Human), UniProt Q9NRH2)
Method in brief: as §1

MLKL = MLKL (Homo sapiens (Human), UniProt Q8NB16)
Method in brief: as §1

LKB1 = LKB1 (Homo sapiens (Human), UniProt Q15831)
Method in brief: as §1

ULK1 = ULK1 (Homo sapiens (Human), UniProt O75385)
Method in brief: as §1

PIK3CD = PIK3CD (Homo sapiens (Human), UniProt O00329)
Method in brief: as §1

FES = FES (Homo sapiens (Human), UniProt P07332)
Method in brief: as §1

MAP3K15, MAP3K5, MAP3K6 = tested on: MAP3K15, MAP3K5, MAP3K6
Method in brief: as §1

p38d, p38g = tested on: p38d, p38g
Method in brief: as §1

TAO2 = TAO2 (Homo sapiens (Human), UniProt Q9UL54)
Method in brief: as §1

Wnk1, Wnk2 = tested on: Wnk1, Wnk2
Method in brief: as §1

Chain of SNRK (Q9NRH2 whole entry): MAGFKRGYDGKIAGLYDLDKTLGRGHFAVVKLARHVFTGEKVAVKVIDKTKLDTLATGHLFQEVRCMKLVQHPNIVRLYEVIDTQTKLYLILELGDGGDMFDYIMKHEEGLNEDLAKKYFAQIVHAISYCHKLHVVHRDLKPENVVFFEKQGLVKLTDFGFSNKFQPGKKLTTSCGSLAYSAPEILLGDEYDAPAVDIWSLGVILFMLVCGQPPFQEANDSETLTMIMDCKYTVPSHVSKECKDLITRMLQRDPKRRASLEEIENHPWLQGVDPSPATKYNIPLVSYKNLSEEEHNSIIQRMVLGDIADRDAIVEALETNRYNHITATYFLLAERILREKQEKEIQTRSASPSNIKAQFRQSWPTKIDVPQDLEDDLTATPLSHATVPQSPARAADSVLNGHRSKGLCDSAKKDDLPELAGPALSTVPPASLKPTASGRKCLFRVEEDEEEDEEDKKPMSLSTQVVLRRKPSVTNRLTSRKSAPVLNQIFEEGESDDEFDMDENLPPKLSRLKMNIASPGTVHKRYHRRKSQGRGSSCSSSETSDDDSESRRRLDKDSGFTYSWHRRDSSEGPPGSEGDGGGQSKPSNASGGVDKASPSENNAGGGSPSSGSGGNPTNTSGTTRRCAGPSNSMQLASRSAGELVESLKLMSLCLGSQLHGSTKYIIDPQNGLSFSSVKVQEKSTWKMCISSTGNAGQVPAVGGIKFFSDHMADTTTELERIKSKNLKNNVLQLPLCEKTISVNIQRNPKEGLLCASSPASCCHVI
Chain of MASTL (Q96GX5 whole entry): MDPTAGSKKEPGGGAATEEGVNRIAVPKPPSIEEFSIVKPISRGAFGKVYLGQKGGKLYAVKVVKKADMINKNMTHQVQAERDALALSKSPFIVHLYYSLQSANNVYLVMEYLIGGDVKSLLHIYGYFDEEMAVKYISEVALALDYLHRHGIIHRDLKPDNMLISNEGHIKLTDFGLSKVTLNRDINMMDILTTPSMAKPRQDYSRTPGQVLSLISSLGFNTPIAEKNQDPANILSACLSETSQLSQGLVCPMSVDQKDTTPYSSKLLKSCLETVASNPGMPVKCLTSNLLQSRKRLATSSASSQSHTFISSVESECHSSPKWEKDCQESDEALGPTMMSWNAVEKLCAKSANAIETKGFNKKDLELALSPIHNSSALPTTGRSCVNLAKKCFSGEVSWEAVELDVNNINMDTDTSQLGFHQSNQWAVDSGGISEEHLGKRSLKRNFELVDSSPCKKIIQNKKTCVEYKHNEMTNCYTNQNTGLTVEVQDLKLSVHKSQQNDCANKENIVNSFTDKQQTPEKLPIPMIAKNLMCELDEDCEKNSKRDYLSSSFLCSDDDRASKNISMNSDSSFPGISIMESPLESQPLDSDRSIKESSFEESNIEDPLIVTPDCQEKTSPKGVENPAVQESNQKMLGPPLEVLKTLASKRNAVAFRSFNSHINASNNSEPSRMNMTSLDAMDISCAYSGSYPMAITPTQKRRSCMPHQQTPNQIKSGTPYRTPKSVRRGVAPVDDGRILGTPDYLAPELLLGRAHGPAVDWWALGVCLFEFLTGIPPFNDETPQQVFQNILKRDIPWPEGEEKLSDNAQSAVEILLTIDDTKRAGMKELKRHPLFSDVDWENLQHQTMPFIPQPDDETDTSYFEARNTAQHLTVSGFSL
Chain of ACK (Q07912 whole entry): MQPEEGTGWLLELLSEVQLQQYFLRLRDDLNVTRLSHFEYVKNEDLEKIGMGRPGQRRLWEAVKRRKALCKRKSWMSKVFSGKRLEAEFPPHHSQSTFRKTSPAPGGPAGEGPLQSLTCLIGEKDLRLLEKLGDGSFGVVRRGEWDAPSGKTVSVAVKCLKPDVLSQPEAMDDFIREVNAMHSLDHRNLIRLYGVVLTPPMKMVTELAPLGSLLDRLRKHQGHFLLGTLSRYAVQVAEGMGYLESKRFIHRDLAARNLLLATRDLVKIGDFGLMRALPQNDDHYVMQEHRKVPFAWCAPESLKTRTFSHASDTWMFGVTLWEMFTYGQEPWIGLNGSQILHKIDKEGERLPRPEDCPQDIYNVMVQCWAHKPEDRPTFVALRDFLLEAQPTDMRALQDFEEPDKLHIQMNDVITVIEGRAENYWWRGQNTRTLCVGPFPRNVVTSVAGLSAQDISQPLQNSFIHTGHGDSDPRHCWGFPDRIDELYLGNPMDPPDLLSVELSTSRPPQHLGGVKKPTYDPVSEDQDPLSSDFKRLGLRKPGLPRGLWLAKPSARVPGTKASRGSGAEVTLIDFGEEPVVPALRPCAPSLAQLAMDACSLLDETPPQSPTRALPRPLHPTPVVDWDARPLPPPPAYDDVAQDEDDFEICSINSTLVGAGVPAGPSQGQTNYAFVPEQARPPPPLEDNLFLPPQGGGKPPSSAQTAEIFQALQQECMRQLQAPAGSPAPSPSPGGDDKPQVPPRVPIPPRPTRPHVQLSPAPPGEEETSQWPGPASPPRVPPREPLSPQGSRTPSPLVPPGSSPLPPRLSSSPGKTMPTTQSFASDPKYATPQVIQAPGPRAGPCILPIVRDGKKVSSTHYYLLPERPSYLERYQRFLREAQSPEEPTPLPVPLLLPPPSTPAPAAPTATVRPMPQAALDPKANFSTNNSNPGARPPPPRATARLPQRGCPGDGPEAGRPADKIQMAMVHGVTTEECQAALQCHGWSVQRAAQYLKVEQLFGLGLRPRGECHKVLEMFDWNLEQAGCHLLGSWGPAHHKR
Chain of PIK3CD (O00329 whole entry): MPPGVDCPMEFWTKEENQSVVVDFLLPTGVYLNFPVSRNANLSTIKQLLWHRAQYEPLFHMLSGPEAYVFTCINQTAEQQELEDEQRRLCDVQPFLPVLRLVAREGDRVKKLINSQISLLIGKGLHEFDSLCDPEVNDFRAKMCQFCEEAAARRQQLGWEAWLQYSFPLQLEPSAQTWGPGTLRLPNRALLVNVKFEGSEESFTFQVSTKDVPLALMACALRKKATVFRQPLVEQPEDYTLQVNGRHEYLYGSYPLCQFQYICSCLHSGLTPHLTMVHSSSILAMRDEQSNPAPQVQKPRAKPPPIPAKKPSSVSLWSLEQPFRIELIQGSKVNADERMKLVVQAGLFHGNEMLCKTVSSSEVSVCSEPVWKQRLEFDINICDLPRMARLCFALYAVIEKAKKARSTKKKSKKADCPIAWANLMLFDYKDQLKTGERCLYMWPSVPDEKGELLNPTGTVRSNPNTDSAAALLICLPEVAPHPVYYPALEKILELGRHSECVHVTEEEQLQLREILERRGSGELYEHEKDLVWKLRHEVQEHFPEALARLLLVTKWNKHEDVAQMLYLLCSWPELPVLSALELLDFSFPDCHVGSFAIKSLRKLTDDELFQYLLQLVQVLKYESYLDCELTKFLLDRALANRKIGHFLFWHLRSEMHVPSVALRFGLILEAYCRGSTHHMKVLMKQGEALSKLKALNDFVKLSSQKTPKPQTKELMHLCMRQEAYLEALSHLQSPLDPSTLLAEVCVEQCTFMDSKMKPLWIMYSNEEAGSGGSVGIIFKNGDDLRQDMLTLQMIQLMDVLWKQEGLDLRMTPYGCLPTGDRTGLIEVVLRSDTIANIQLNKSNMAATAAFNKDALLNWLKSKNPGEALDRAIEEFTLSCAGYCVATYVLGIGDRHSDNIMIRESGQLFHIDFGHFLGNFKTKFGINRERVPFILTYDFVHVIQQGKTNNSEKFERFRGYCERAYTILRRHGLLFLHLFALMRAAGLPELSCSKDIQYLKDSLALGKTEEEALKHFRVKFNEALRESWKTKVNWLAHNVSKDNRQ
Chain of PIK3CD (P27986 whole entry partner): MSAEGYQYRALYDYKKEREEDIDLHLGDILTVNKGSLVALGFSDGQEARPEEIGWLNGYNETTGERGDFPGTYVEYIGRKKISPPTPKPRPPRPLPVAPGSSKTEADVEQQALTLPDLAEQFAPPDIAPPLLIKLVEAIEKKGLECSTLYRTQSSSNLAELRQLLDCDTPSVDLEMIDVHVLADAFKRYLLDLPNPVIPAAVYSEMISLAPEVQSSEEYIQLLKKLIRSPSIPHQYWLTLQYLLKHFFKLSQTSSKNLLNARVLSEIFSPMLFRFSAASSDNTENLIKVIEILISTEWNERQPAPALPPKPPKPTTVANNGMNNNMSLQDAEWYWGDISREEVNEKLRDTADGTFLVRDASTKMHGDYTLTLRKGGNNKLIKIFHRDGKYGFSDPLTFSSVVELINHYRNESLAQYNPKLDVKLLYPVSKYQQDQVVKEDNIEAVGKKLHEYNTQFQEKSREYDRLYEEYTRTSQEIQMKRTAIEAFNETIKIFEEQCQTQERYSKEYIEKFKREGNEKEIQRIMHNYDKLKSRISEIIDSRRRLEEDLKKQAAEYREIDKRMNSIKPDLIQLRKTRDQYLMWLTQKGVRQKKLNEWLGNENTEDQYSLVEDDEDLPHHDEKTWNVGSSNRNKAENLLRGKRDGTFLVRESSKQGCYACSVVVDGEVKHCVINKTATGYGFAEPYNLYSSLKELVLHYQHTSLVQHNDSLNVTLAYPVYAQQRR
Chain of CDK4 (P11802 2-303): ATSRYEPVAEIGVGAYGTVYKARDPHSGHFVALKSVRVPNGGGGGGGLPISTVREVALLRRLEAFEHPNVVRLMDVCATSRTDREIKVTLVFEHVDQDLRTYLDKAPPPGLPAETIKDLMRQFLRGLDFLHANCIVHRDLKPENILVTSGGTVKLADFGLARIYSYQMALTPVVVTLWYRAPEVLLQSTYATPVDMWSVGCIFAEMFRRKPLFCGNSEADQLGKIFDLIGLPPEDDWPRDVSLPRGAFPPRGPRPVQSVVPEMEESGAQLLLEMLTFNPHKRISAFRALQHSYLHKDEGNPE

SMILES: C=CC(=O)N1CC[C@@H](Nc2nccc(Nc3ncc(C(=O)Nc4c(C)cccc4C)s3)n2)C1 [Example I-4]
- % change of MS signal compared to control sample (Erk1): −10.9%
- % change of MS signal compared to control sample (PAN3): −29.0%
- % change of MS signal compared to control sample (MSK2 domain1): −9.6%
- % change of MS signal compared to control sample (PKD1, PKD2): −4.7%
- % change of MS signal compared to control sample (PKN1): 17.4%
- % change of MS signal compared to control sample (MSK1, MSK2 domain1): −28.9%
- % change of MS signal compared to control sample [1]: 3.3%
- % change of MS signal compared to control sample (MAP3K5): −10.7%
- % change of MS signal compared to control sample (NEK2): 22.3%
- % change of MS signal compared to control sample (SRC): >90%
- % change of MS signal compared to control sample (ACK): 27.0% and 22.8%
- % change of MS signal compared to control sample (ILK): −19.1%
- % change of MS signal compared to control sample (MST4): −13.2%
- % change of MS signal compared to control sample (RSKL1): 10.7%
- % change of MS signal compared to control sample (JNK1, JNK2, JNK3): 6.3%
- % change of MS signal compared to control sample (Wnk1, Wnk2, Wnk3): 17.5%
- % change of MS signal compared to control sample [2]: 10.0%
- % change of MS signal compared to control sample (IKKe, TBK1): −38.7%
- % change of MS signal compared to control sample (JAK1): −5.7%
- % change of MS signal compared to control sample (OSR1): 26.7%
- % change of MS signal compared to control sample (PIK3C2B): −5.8%
- % change of MS signal compared to control sample (CDK4): 6.8%
- % change of MS signal compared to control sample (ROCK1): 6.7%
- % change of MS signal compared to control sample (MST1): 7.0%
- % change of MS signal compared to control sample (CDK11, CDK8): −36.1%
- % change of MS signal compared to control sample (MASTL): −2.9% and −0.3%
- % change of MS signal compared to control sample (AKT1): −11.0%
- % change of MS signal compared to control sample (CaMK4): −7.1%
- % change of MS signal compared to control sample (PI4KA, PI4KAP2): −37.7%
- % change of MS signal compared to control sample (MAP3K1): 18.4%
- % change of MS signal compared to control sample (ITPK1): 12.8%
- % change of MS signal compared to control sample (TAO1, TAO3): 7.6%
- % change of MS signal compared to control sample (SNRK): 35.3% and 61.9%
- % change of MS signal compared to control sample (MLKL): −9.4%
- % change of MS signal compared to control sample (LKB1): −4.5%
- % change of MS signal compared to control sample (ULK1): 16.2%
- % change of MS signal compared to control sample (PIK3CD): −14.5%
- % change of MS signal compared to control sample (FES): −15.6%
- % change of MS signal compared to control sample (MAP3K15, MAP3K5, MAP3K6): 2.8%
- % change of MS signal compared to control sample (p38d, p38g): −2.7%
- % change of MS signal compared to control sample (TAO2): −7.0%
- % change of MS signal compared to control sample (Wnk1, Wnk2): 7.8%

SMILES: C=CC(=O)N1CCC(Cn2ccc(Nc3ncc(C(=O)Nc4c(C)cccc4Cl)s3)n2)C1 (centres unmarked) [II-1]
- % change of MS signal compared to control sample (Erk1): −17.6%
- % change of MS signal compared to control sample (PAN3): −7.0%
- % change of MS signal compared to control sample (MSK2 domain1): −33.9%
- % change of MS signal compared to control sample (PKD1, PKD2): −19.8%
- % change of MS signal compared to control sample (PKN1): 20.9%
- % change of MS signal compared to control sample (MSK1, MSK2 domain1): −37.4%
- % change of MS signal compared to control sample [1]: 4.2%
- % change of MS signal compared to control sample (MAP3K5): −22.9%
- % change of MS signal compared to control sample (NEK2): −6.0%
- % change of MS signal compared to control sample (SRC): >90%
- % change of MS signal compared to control sample (ACK): 51.7% and 50.8%
- % change of MS signal compared to control sample (MST4): 21.1%
- % change of MS signal compared to control sample (RSKL1): 13.7%
- % change of MS signal compared to control sample (JNK1, JNK2, JNK3): −23.5%
- % change of MS signal compared to control sample (Wnk1, Wnk2, Wnk3): 2.4%
- % change of MS signal compared to control sample [2]: 2.5%
- % change of MS signal compared to control sample (IKKe, TBK1): −27.2%
- % change of MS signal compared to control sample (JAK1): 5.4%
- % change of MS signal compared to control sample (OSR1): 16.4%
- % change of MS signal compared to control sample (PIK3C2B): −5.8%
- % change of MS signal compared to control sample (CDK4): 2.2%
- % change of MS signal compared to control sample (ROCK1): 12.8%
- % change of MS signal compared to control sample (MST1): 13.2%
- % change of MS signal compared to control sample (CDK11, CDK8): −9.2%
- % change of MS signal compared to control sample (MASTL): −16.7% and −8.2%
- % change of MS signal compared to control sample (AKT1): −17.8%
- % change of MS signal compared to control sample (CaMK4): −10.3%
- % change of MS signal compared to control sample (PI4KA, PI4KAP2): −45.7%
- % change of MS signal compared to control sample (MAP3K1): −1.2%
- % change of MS signal compared to control sample (ITPK1): 14.0%
- % change of MS signal compared to control sample (TAO1, TAO3): −17.2%
- % change of MS signal compared to control sample (SNRK): 47.8% and 59.8%
- % change of MS signal compared to control sample (MLKL): −0.8%
- % change of MS signal compared to control sample (LKB1): −1.2%
- % change of MS signal compared to control sample (ULK1): 19.7%
- % change of MS signal compared to control sample (PIK3CD): −9.5%
- % change of MS signal compared to control sample (FES): −15.0%
- % change of MS signal compared to control sample (MAP3K15, MAP3K5, MAP3K6): 7.5%
- % change of MS signal compared to control sample (p38d, p38g): −6.6%
- % change of MS signal compared to control sample (TAO2): −17.9%
- % change of MS signal compared to control sample (Wnk1, Wnk2): −3.8%
